Test results reported in patent US5290817A, “Substituted 1-benzylindanes and their use as inhibitors of phospholipase A2” (The Du Pont Merck Pharmaceutical Co., priority 1992, dated 1994).

Assays:
[1] = test system: porcine pancreatic phospolipase A2; details: Ripka et al., Journal of Cellular Biochemistry, 40, 279-286 (1989); cited from earlier work
[2] = molecular target: PLA2 from Crotalus adamanteus (Crotalus adamanteus, UniProt P00623); experiment: biochemical; set-up: species or system Crotalus adamanteus (snake venom)
[3] = Carrageenan Paw Edema Assay; assay type: in vivo, rat (male Sprague-Dawley); details: 50 mg/kg, intraperitoneal, paw volume at three hours; n = 3
Experimental: The test procedure is as follows: male Caesarian-derived Sprague-Dawley rates from Charles River Laboratories are maintained on rat chow and water ad libidum and on a 12 hour light/12 hour dark cycle until they weight 160-210 grams.
One drop of Tween 80 per 10 ml of methylcellulose and 4 mm glass beads are added to each suspension. Each compound is bead-milled for one hour prior to use.
Dosing is intraperitioneal.
After dosing, all animals are given tap water so that the total volumes of fluid administered to each rat orally is 5.0 ml. This achieves uniform hydration of the rats and thus minimizes variability of the edematous response in the paw.
Sigma Type IV lambda carrageenan (Sigma Chemical Company, St. Louis, Mo., #C3889) is suspended in 0.9% sterile saline usually as a 1% solution (100 mg/10 ml). This preparation is bead-milled one hour prior to use. […]
Immediately following injection initial paw volume readings are taken, and then again three hours later using a Ugo Basile volume plethysmometer. The differences between the initial reading and the three hour reading is then calculated. Means; S.E.M. of these difference are determined for each group. The percent decrease from the control volumes are calculated using the following formula: [formula] Data are evaluated using the Student's t-test and p 0.05 is considered significant.

Sequence of PLA2 from Crotalus adamanteus (P00623 17-138 limits assumed): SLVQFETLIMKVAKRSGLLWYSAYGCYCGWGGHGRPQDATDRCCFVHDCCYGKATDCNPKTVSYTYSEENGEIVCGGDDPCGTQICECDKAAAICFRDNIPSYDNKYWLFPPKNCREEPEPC

In the case of `Oc1cccc(CC2CCc3ccccc32)c1` (stereo not drawn), the “inhibitory activity against porcine pancreatic phospolipase A2” value [1] is listed as “claimed to possess inhibitory activity”.

For `O=CCc1cccc(CC2CCc3ccccc32)c1` (stereo not drawn) [Ex. 12, 3-(2',3'-Dihydroinden-1'-ylmethyl)-phenylacetaldehyde], the IC50 [2] was 2400 nM and the “Carr. Paw Edemia Inhib. %” value [3] was 51%.
